In patent US10525055B2, “Opioid receptor antagonist prodrugs” (Nirsum Laboratories, Inc., priority 2017, dated 2020):

Experiments:
[1] = Polymorph screening of solid state drug substances; settings: for XRPD results (Dried): stirred 50 °C 72 hours, solids dried; for Visual observation 50° C. / Visual observation RT: target conc. 100 mg/ml
[2] = Solubility determination in oil (cottonseed oil, sesame oil)
Method: A known amount of test substance (˜40 mg) was weighed into the vial, 100 μL of oil was added and heated to 60° C. and then system was slurried to reach equilibrium. […] Extra oil was added into the vial once compound precipitated out and then the system was re-equilibrated at 1000 rpm at room temperature (25° C.). Final concentration was determined by HPLC method as described below in Table 6a and 6b.

[3] = Plasma stability assay, rat plasma; assay type: in vitro ADME; settings: 37° C., 10 μM
Method: Plasma stability determination of the test compounds in rat, dog, cynomolgus monkey and human plasma is performed using HPLC-MS. For rat, incubations are carried out in 96-well polypropylene plates in 5 aliquots of 70 μL each (one for each time point). […] Five time points are analyzed (0, 15, 120, 480 and 1440 min). For dog, monkey and human, test compounds (2 μM, final solvent concentration 1%) were also incubated at 37° C. and analyzed at five time points (0, 10, 30, 60 and 120 min). All incubations are performed in duplicates. The samples are analyzed by HPLC-MS. The percentage of parent compound remaining after incubation in plasma is determined.

[4] = heating temp. 60 °C, obs. temp. 40 °C
[5] = heating temp. 60 °C, obs. temp. 25 °C
[6] = heating temp. 40 °C, obs. temp. 40 °C

Row | Compound | % remaining at time point in minutes, 0 min [3] | % remaining at time point in minutes, 15 min [3] | % remaining at time point in minutes, 120 min [3] | % remaining at time point in minutes, 480 min [3] | % remaining at time point in minutes, 1440 min [3] | Approximate Solubility (mg/mL) in Excipient: Sesame oil [2, 5] | further results
1 | C=C1CC[C@@]2(O)C3Cc4ccc(OC(=O)CCCCCCCCCCCCCCCCCCC)c5c4[C@@]2(CCN3CC2CC2)[C@H]1O5 [Compound 16, (4aS,7aS,12bS)-3-(cyclopropylmethyl)-4a-hydroxy-7-methylene-2,3,4,4a,5,6,7,7a-octahydro-1H-4,12-methanobenzofuro[3,2-e]isoquinolin-9-yl icosanoate] |  |  |  |  |  |  | XRPD results (Dried) ([1]; Acetone): Pattern A; Visual observation 50° C. ([1]; Acetone): Clear; Visual observation RT ([1]; Acetone): Slurry; XRPD results (Dried) ([1]; EtOAc): Pattern A; Visual observation 50° C. ([1]; EtOAc): Clear; Visual observation RT ([1]; EtOAc): Slurry; XRPD results (Dried) ([1]; Heptane): Pattern A; Visual observation 50° C. ([1]; Heptane): Slurry; Visual observation RT ([1]; Heptane): Slurry; XRPD results (Dried) ([1]; Isopropanol): Pattern A; Visual observation 50° C. ([1]; Isopropanol): Slurry; Visual observation RT ([1]; Isopropanol): Slurry; XRPD results (Dried) ([1]; MTBE): Pattern A; Visual observation 50° C. ([1]; MTBE): Clear; Visual observation RT ([1]; MTBE): Clear; Comment: stability of initial crystal form (pattern A) ([1]; polymorph screen over Heptane, MTBE, Isopropanol, EtOAc, Acetone): likely stable form. Same crystal form; Approximate Solubility (mg/mL) in Excipient: Sesame oil [2, 4]: 202 to 404 mg/mL
2 | C=C1CC[C@@]2(O)C3Cc4ccc(OC(=O)OCCCCCCCC)c5c4[C@@]2(CCN3CC2CC2)[C@H]1O5 [Compound 17, (4aS,7aS,12bS)-3-(cyclopropylmethyl)-4a-hydroxy-7-methylene-2,3,4,4a,5,6,7,7a-octahydro-1H-4,12-methanobenzofuro[3,2-e]isoquinolin-9-yl octyl carbonate] | 100% | 0% | 0% | 0% | 0% |  | Approximate Solubility (mg/mL) in Excipient: Cottonseed oil [2, 5]: >408 mg/mL
3 | C=C1CC[C@@]2(O)C3Cc4ccc(OC(=O)CCCCCCC/C=C\C/C=C\C/C=C\CC)c5c4[C@@]2(CCN3CC2CC2)[C@H]1O5 [Compound 20, (4aS,7aS,12bS)-3-(cyclopropylmethyl)-4a-hydroxy-7-methylene-2,3,4,4a,5,6,7,7a-octahydro-1H-4,12-methanobenzofuro[3,2-e]isoquinolin-9-yl (9Z,12Z,15Z)-octadeca-9,12,15-trienoate] |  |  |  |  |  |  | Approximate Solubility (mg/mL) in Excipient: Sesame oil [2, 6]: >406 mg/mL
4 | CCCCCCCC/C=C\CCCCCCCCCCCC(=O)Oc1ccc2c3c1O[C@H]1C(=O)CC[C@@]4(O)C(C2)N(CC2CC2)CC[C@]314 [Compound 22, (4aS,7aR,12bS)-3-(cyclopropylmethyl)-4a-hydroxy-7-oxo-2,3,4,4a,5,6,7,7a-octahydro-1H-4,12-methanobenzofuro[3,2-e]isoquinolin-9-yl (Z)-docos-13-enoate] |  |  |  |  |  |  | Approximate Solubility (mg/mL) in Excipient: Ethanol ([2]; Ethanol, heating temp. 60 °C, obs. temp. 40 °C): >397.7 mg/mL; Approximate Solubility (mg/mL) in Excipient: Sesame oil [2, 4]: >401.9 mg/mL
5 | CCCCCCCCCCCCCCOC(=O)OCOc1ccc2c3c1O[C@H]1C(=O)CC[C@@]4(O)C(C2)N(CC2CC2)CC[C@]314 [Compound 27, (((4aS,7aR,12bS)-3-(cyclopropylmethyl)-4a-hydroxy-7-oxo-2,3,4,4a,5,6,7,7a-octahydro-1H-4,12-methanobenzofuro[3,2-e]isoquinolin-9-yl)oxy)methyl tetradecyl carbonate] |  |  |  |  |  | >399.2 mg/mL | 
6 | C=C1CC[C@@]2(O)C3Cc4ccc(OC(=O)OCCCCCCCCCCCCCCCCCCCC)c5c4[C@@]2(CCN3CC2CC2)[C@H]1O5 [Compound 28, (4aS,7aS,12bS)-3-(cyclopropylmethyl)-4a-hydroxy-7-methylene-2,3,4,4a,5,6,7,7a-octahydro-1H-4,12-methanobenzofuro[3,2-e]isoquinolin-9-yl icosyl carbonate] |  |  |  |  |  | <50.6 mg/mL | 
7 | C=C1CC[C@@]2(O)C3Cc4ccc(OC(=O)OCCCCCCCCCCCCCCCCCC)c5c4[C@@]2(CCN3CC2CC2)[C@H]1O5 [Compound 33, (4aS,7aS,12bS)-3-(cyclopropylmethyl)-4a-hydroxy-7-methylene-2,3,4,4a,5,6,7,7a-octahydro-1H-4,12-methanobenzofuro[3,2-e]isoquinolin-9-yl octadecyl carbonate] |  |  |  |  |  | <51 mg/mL | 
8 | C=C1CC[C@@]2(O)C3Cc4ccc(OC(=O)CCCCCCC/C=C\CCCCCCCC)c5c4[C@@]2(CCN3CC2CC2)[C@H]1O5 [Compound 36, (4aS,7aS,12bS)-3-(cyclopropylmethyl)-4a-hydroxy-7-methylene-2,3,4,4a,5,6,7,7a-octahydro-1H-4,12-methanobenzofuro[3,2-e]isoquinolin-9-yl oleate] | 100% | 74.4% | 66.3% | 39.8% | 19.1% | >408 mg/mL | Approximate Solubility (mg/mL) in Excipient: Cottonseed oil [2, 5]: >407 mg/mL; Approximate Solubility (mg/mL) in Excipient: Sesame oil [2, 6]: >411.6 mg/mL
9 | C=C1CC[C@@]2(O)C3Cc4ccc(OC(=O)CCC5CCCC5)c5c4[C@@]2(CCN3CC2CC2)[C@H]1O5 [Compound 39, (4aS,7aS,12bS)-3-(cyclopropylmethyl)-4a-hydroxy-7-methylene-2,3,4,4a,5,6,7,7a-octahydro-1H-4,12-methanobenzofuro[3,2-e]isoquinolin-9-yl 3-cyclopentylpropanoate] |  |  |  |  |  | 106 to 141 mg/mL | 
10 | CC(C)(C)CC(=O)Oc1ccc2c3c1O[C@H]1C(=O)CC[C@@]4(O)C(C2)N(CC2CC2)CC[C@]314 [Compound 42, (4aS,7aR,12bS)-3-(cyclopropylmethyl)-4a-hydroxy-7-oxo-2,3,4,4a,5,6,7,7a-octahydro-1H-4,12-methanobenzofuro[3,2-e]isoquinolin-9-yl 3,3-dimethylbutanoate] |  |  |  |  |  |  | Approximate Solubility (mg/mL) in Excipient: Sesame oil [2, 6]: <52 mg/mL; Approximate Solubility (mg/mL) in Excipient: Sesame oil [2, 4]: <25.8 mg/mL
11 | CCCCCCCCCCCCCCCC(=O)OCOc1ccc2c3c1O[C@H]1C(=O)CC[C@@]4(O)C(C2)N(CC2CC2)CC[C@]314 [Compound 49, (((4aS,7aR,12bS)-3-(cyclopropylmethyl)-4a-hydroxy-7-oxo-2,3,4,4a,5,6,7,7a-octahydro-1H-4,12-methanobenzofuro[3,2-e]isoquinolin-9-yl)oxy)methyl hexadecanoate] |  |  |  |  |  | <51 mg/mL | 
12 | CCCCCCCCCCCCCCCCCCCC(=O)Oc1ccc2c3c1O[C@H]1C(=O)CC[C@@]4(O)C(C2)N(CC2CC2)CC[C@]314 [Compound 50, (4aS,7aR,12bS)-3-(cyclopropylmethyl)-4a-hydroxy-7-oxo-2,3,4,4a,5,6,7,7a-octahydro-1H-4,12-methanobenzofuro[3,2-e]isoquinolin-9-yl icosanoate] | 100% | 114.5% | 102.7% | 83.3% | 73.9% | <52 mg/mL | 
13 | CCCCCCCCCCCCCCCCCCCCCC(=O)Oc1ccc2c3c1O[C@H]1C(=O)CC[C@@]4(O)C(C2)N(CC2CC2)CC[C@]314 [Compound 51, (4aS,7aR,12bS)-3-(cyclopropylmethyl)-4a-hydroxy-7-oxo-2,3,4,4a,5,6,7,7a-octahydro-1H-4,12-methanobenzofuro[3,2-e]isoquinolin-9-yl docosanoate] | 100% | 107.4% | 105.3% | 88.2% | 92.7% |  | 
14 | CCCCC/C=C\C/C=C\CCCCCCCC(=O)Oc1ccc2c3c1O[C@H]1C(=O)CC[C@@]4(O)C(C2)N(CC2CC2)CC[C@]314 [Compound 53, (4aS,7aR,12bS)-3-(cyclopropylmethyl)-4a-hydroxy-7-oxo-2,3,4,4a,5,6,7,7a-octahydro-1H-4,12-methanobenzofuro[3,2-e]isoquinolin-9-yl (9Z,12Z)-octadeca-9,12-di.enoate] | 100% | 46.85% | 19.6% | 7.3% | 1.9% | >401.9 mg/mL | Approximate Solubility (mg/mL) in Excipient: Cottonseed oil [2, 5]: >408.5 mg/mL; Approximate Solubility (mg/mL) in Excipient: Sesame oil [2, 4]: >406.3 mg/mL
15 | Enalapril maleate salt [reference compound] | 100% | 44% | 2.9% | 8.2% | 4.8% |  | 
